This passage reports IC50 results from BindingDB's records for doi:10.1016/j.bioorg.2016.09.004 (North-West University, 2016).

Experiment [1] addresses T1, Amine oxidase [flavin-containing] B (Homo sapiens, UniProt P27338).
T1 sequence (P27338 whole entry): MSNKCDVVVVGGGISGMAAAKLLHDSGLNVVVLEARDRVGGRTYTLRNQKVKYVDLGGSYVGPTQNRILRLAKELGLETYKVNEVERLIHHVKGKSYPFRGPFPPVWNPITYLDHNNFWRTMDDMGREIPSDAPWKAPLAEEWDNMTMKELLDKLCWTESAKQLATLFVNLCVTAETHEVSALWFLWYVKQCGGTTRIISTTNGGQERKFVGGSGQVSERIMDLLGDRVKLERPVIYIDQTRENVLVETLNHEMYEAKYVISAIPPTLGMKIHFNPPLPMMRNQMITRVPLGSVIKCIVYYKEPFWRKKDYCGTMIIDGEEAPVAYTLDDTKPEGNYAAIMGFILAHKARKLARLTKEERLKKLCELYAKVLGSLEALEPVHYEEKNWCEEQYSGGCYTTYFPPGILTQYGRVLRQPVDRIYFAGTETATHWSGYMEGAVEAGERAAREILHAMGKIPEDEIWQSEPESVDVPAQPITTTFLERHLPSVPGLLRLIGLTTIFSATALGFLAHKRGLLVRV
The experiment in a line: MAO-A and MAO-B Fluorescence Assay. The settings on record: pH 7.4. As to the method: (§1) Recombinant human MAO-A and MAO-B were used for these studies and kynuramine served as enzyme substrate. Kynuramine is oxidised by both MAO isoforms to yield 4-hydroxyquinoline as ultimate product. For the enzyme reactions MAO-A (0.0075 mg/mL) or MAO-B (0.015 mg/mL), the substrate (50 μM) and the test inhibitors (0.003-100 μM) were combined and incubated for 20 min. For this purpose potassium phosphate buffer (pH 7.4, 100 mM) served as solvent. At endpoint the reactions were alkalinised (NaOH) and the fluorescence intensity of 4-hydroxyquinoline was measured (kex = 310 nm; kem = 400 nm).

Experiment [2] addresses T2, Amine oxidase [flavin-containing] A (Homo sapiens, UniProt P21397).
T2 sequence (P21397 whole entry): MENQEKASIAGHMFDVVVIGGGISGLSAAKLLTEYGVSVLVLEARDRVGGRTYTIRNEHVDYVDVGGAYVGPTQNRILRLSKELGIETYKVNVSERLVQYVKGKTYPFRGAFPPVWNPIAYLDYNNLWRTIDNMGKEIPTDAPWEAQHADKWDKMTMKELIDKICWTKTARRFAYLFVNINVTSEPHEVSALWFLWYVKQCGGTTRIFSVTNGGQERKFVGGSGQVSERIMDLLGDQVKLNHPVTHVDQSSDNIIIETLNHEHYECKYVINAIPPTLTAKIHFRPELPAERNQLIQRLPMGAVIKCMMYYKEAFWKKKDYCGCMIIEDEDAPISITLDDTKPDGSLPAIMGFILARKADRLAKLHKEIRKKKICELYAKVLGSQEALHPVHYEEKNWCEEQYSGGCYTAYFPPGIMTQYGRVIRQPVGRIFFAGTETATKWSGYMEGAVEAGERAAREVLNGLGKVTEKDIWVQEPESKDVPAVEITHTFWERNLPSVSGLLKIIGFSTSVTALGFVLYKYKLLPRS
As to the kind of experiment: MAO-A and MAO-B Fluorescence Assay. The settings on record: pH 7.4. As to the method: as §1

Molecules are shown by their SMILES.

One may read the IC50 as the concentration that inhibits the measured activity by half. For `O=C1/C(=C/c2cccnc2)Cc2ccccc21` [(2E)-2-(Pyridin-3-ylmethylidene)-2,3-dihydro-1H-inden-1-one (11a)], the IC50 in experiment [1] is 1.27 µM; in experiment [2], 0.061 µM.
For `COc1ccc2c(c1)C/C(=C\c1ccc(C)o1)C2=O` [(2E)-5-Methoxy-2-[(5-methylfuran-2-yl)methylidene]-2,3-dihydro-1H-inden-1-one (11n)], the IC50 stood at 0.026 µM in experiment [1] and 4.73 µM in experiment [2].
`COc1ccc2c(c1)C/C(=C\c1cccs1)C2=O` [(2E)-5-Methoxy-2-(thiophen-2-ylmethylidene)-2,3-dihydro-1H-inden-1-one (11i)]: the IC50 in experiment [1] amounted to 0.114 µM; in experiment [2] it was 5.18 µM.
In the case of `COc1ccc2c(c1)C/C(=C\c1ccccn1)C2=O` [(2E)-5-Methoxy-2-(pyridin-2-ylmethylidene)-2,3-dihydro-1Hinden-1-one (11d)], the IC50 in experiment [1] was 0.112 µM; in experiment [2], 0.302 µM.
For `COc1ccc2c(c1)C/C(=C\c1ccc(Br)o1)C2=O` [(2E)-2-[(5-Bromofuran-2-yl)methylidene]-5-methoxy-2,3-dihydro-1H-inden-1-one (11o)], in that order: 0.0044 µM and 0.183 µM.
On the same counts, the results for `COc1ccc2c(c1)C/C(=C\c1ccco1)C2=O` [(2E)-2-(Furan-2-ylmethylidene)-5-methoxy-2,3-dihydro-1Hinden-1-one (11g)] are 0.394 µM and 2.33 µM.
For `O=C1/C(=C/c2ccsc2)Cc2ccccc21` [(2E)-2-(Thiophen-3-ylmethylidene)-2,3-dihydro-1H-inden-1-one (11k)], in that order: 0.114 µM and 1.51 µM.
Consider `O=C1/C(=C/c2cccnc2Cl)Cc2ccccc21` [(2E)-2-[(2-Chloropyridin-3-yl)methylidene]-2,3-dihydro-1Hinden-1-one (11e)], for which the figures for the IC50 in experiment [1] and in experiment [2] were 0.465 µM and 0.471 µM, respectively.
For `COc1ccc2c(c1)C/C(=C\c1cccnc1)C2=O` [(2E)-5-Methoxy-2-(pyridin-3-ylmethylidene)-2,3-dihydro-1Hinden-1-one (11b)], the IC50 in experiment [1] amounted to 0.338 µM; in experiment [2], 8.55 µM.
For `O=C1/C(=C/C2CCCCC2)Cc2ccccc21` [(2E)-2-(Cyclohexylmethylidene)-2,3-dihydro-1H-inden-1-one (11l)], in that order: 0.229 µM and 5.21 µM.
Turning to `O=C1/C(=C/c2cccs2)Cc2ccccc21` [(2E)-2-(Thiophen-2-ylmethylidene)-2,3-dihydro-1H-inden-1-one (11h)], the IC50 in experiment [1] amounted to 0.418 µM; in experiment [2], 1.33 µM.
For `O=C1/C(=C/c2ccccn2)Cc2ccccc21` [(2E)-2-(Pyridin-2-ylmethylidene)-2,3-dihydro-1H-inden-1-one (11c)], in that order: 1.53 µM and 0.853 µM.
For `O=C1/C(=C/c2ccco2)Cc2ccccc21`, the IC50 came to 0.889 µM in experiment [1] and 1.2 µM in experiment [2].
Consider `COc1ccc2c(c1)C/C(=C\C1CCCCC1)C2=O` [(2E)-2-(Cyclohexylmethylidene)-5-methoxy-2,3-dihydro-1Hinden-1-one (11m)], for which the half-maximal inhibitory concentration (IC50) in experiment [1] is 0.139 µM.
